The source of these data is PMC9368981, “The γ-Core Motif Peptides of AMPs from Grasses Display Inhibitory Activity against Human and Plant Pathogens” (International Journal of Molecular Sciences, 2022).

Where a SMILES comes first, the peptide text is derived from it.

Assay [1] deals with F. culmorum VKM F-2303. Description: Growth inhibition of F. culmorum in microtiter plates. Format: cell-based, Fusarium culmorum. The note with it: 300 µM peptide; spores in half-strength potato dextrose broth, 38 h, absorbance 595 nm; vs control without peptide; triplicate, mean. As to the method: (§1) The antimicrobial activity of synthetic peptides was tested against a panel of human and plant pathogens. Among them were the yeasts Candida albicans VKM Y-2994 and Cryptococcus neoformans VKM Y-2755, the plant pathogenic bacteria Clavibacter michiganensis subsp. michiganensis VKM Ac-1403, Pseudomonas savastanoi pv. savastanoi VKM B-1546 and Pectobacterium carotovorum subsp. carotovorum VKM B-1247, and four Fusarium species (F. oxysporum VKM F-137, F. culmorum VKM F-2303, F. solani VKM F-142 and F. verticillioides VKM F-670), which cause diseases in plants and humans. The antimicrobial activity was first measured at the peptide concentration of 300 µM (Figure 3).
(§2) The antimicrobial activity of synthetic peptides was tested against the yeasts Candida albicans VKM Y-2994 and Cryptococcus neoformans VKM Y-2755, the bacteria Pseudomonas savastanoi pv. savastanoi VKM B-1546, Pectobacterium carotovorum subsp. carotovorum VKM B-1247 and Clavibacter michiganensis subsp. michiganensis VKM Ac-1403, and four Fusarium species: F. culmorum VKM F-2303, F. oxysporum VKM F-137, F. solani VKM F-142 and F. verticillioides VKM F-670. All cultures were obtained from the All-Russian Collection of Microorganisms (VKM). […] The antimicrobial activity of the peptides was measured in immunoassay microtiter plates according to the protocol of Broekaert et al.. […]

Assay [2] has as its system F. oxysporum VKM F-137. Nature of the assay: Growth inhibition of F. oxysporum in microtiter plates. The note with it: 300 µM peptide; spores in half-strength potato dextrose broth, 38 h, absorbance 595 nm; vs control without peptide; triplicate, mean. Format: cell-based, Fusarium oxysporum. As to the method: as §1, §2
Assay [3] relates to F. solani VKM F-142. Description: Growth inhibition of F. solani in microtiter plates. Format: cell-based, Fusarium solani. The settings on record: 300 µM peptide; spores in half-strength potato dextrose broth, 38 h, absorbance 595 nm; vs control without peptide; triplicate, mean. As to the method: as §1, §2
The subject of assay [4] is F. verticillioides VKM F-670. Format: cell-based, Fusarium verticillioides. The settings on record: 300 µM peptide; spores in half-strength potato dextrose broth, 38 h, absorbance 595 nm; vs control without peptide; triplicate, mean. On the procedure:
as §1
(§3) The antimicrobial activity of synthetic peptides was tested against the yeasts Candida albicans VKM Y-2994 and Cryptococcus neoformans VKM Y-2755, the bacteria Pseudomonas savastanoi pv. savastanoi VKM B-1546, Pectobacterium carotovorum subsp. carotovorum VKM B-1247 and Clavibacter michiganensis subsp. michiganensis VKM Ac-1403, and four Fusarium species: F. culmorum VKM F-2303, F. oxysporum VKM F-137, F. solani VKM F-142 and F. verticillioides VKM F-670. All cultures were obtained from the All-Russian Collection of Microorganisms (VKM). The details of the production and storage of cultures of microorganisms used in this study are described at the VKM Home page. Antimicrobial assays were accomplished according to the procedure described earlier. In short, yeasts were grown on the YPD-P medium and the bacteria P. carotovorum and Cl. michiganensis were cultured on a modified YPD-P medium. The Fusarium fungi were grown on potato dextrose agar at 25 °C for 7–8 days, and spores were washed off from the surface of the mycelia with sterile, distilled water. The antimicrobial activity of the peptides was measured in immunoassay microtiter plates according to the protocol of Broekaert et al.. With yeasts and bacteria, each well contained 10 µL of the tested peptide solution (final concentrations of 10–300 µM) in water, 80 µL of the medium and 10 µL of the microbial suspension. The plates were incubated at 30 °C for 24 h, and the absorbance of the suspension was measured on an Efos 9305 spectrophotometer (Sapphire, Moscow, Russia) at 594 nm. For Fusarium species, the wells of a microtiter plate were filled with 90 µL of the fungal spore suspension in half-strength potato dextrose broth at a concentration of 2000–3000 spores in 100 µL and 10 µL of aqueous solutions of peptides at final concentrations of 10–300 µM. After 38 h of incubation, the absorbance was recorded at 595 nm on a FilterMax F5 Multi-Mode Microplate Reader (Molecular Devices, San Jose, CA, USA). Antimicrobial activity is expressed in IC50 values, which show the concentration necessary for 50% inhibition of the pathogen growth; this was determined from a graph showing the activity dependence on peptide concentration.
(§4) For each pathogen, experiments on the peptide antimicrobial activity evaluation were carried out in triplicate per treatment. Mean values, standard deviations (SD), and the significance of differences (p ≤ 0.05) of the means between treatments and controls (t-test for independent variables) were determined using STATISTICA v. 6.1 software (StatSoft Inc., Tulsa, OK, USA).

The subject of assay [5] is Cryptococcus neoformans VKM Y-2755. Format: cell-based. The settings on record: inhibition curves (Figure 4); highest tested concentration (300 µM). As to the method:
as §1, §3, §4

In assay [6] the test system is Clavibacter michiganensis subsp. michiganensis VKM Ac-1403. Description: Growth inhibition of Cl. michiganensis in microtiter plates. The settings on record: inhibition curves (Figure 4); highest tested concentration of 300 µM. Format: cell-based. On the procedure: as §1
The antimicrobial activity of synthetic peptides was tested against the yeasts Candida albicans VKM Y-2994 and Cryptococcus neoformans VKM Y-2755, the bacteria Pseudomonas savastanoi pv. savastanoi VKM B-1546, Pectobacterium carotovorum subsp. carotovorum VKM B-1247 and Clavibacter michiganensis subsp. michiganensis VKM Ac-1403, and four Fusarium species: F. culmorum VKM F-2303, F. oxysporum VKM F-137, F. solani VKM F-142 and F. verticillioides VKM F-670. All cultures were obtained from the All-Russian Collection of Microorganisms (VKM). […] The antimicrobial activity of the peptides was measured in immunoassay microtiter plates according to the protocol of Broekaert et al.. […] The plates were incubated at 30 °C for 24 h, and the absorbance of the suspension was measured on an Efos 9305 spectrophotometer (Sapphire, Moscow, Russia) at 594 nm. […] After 38 h of incubation, the absorbance was recorded at 595 nm on a FilterMax F5 Multi-Mode Microplate Reader (Molecular Devices, San Jose, CA, USA). […]
For each pathogen, experiments on the peptide antimicrobial activity evaluation were carried out in triplicate per treatment. Mean values, standard deviations (SD), and the significance of differences (p ≤ 0.05) of the means between treatments and controls (t-test for independent variables) were determined using STATISTICA v. […]

The test system of assay [7] is Cr. neoformans cells. Nature of the assay: Propidium iodide staining, fluorescence microscopy. Format: cell-based, Cryptococcus neoformans. The settings on record: peptide 300 µM, 30 °C, 1 h, 0.03 mM PI 15 min. On the procedure: (§5) Their ability to disturb the integrity of pathogen membranes was assayed by staining with propidium iodide of C. albicans and Cr. neoformans cells preliminarily incubated with the peptides. The results were visualized by fluorescent microscopy and quantified by flow cytometry (Figure 5, Figure 6 and Figure 7).
(§6) Staining of yeast cells with propidium iodide in the presence of the γ-core peptides was carried out according to the protocol described earlier. C. albicans or Cr. neoformans cells (24 h culture in YPD-P at a cell concentration of 2 × 10^8/mL) were incubated with the peptide at a concentration of 300 µM at 30 °C for 1 h. After incubation, 1 mL of the cells was stained with 0.03 mM propidium iodide (Sigma, St. Louis, MO, USA). The staining proceeded for 15 min at 30 °C. The fluorescence was recorded on an AXIO Imager A1 fluorescence microscope (ZEISS, Göttingen, Germany) using a Zeiss filter set 56 HE.

Assay [8] concerns C. albicans cells. Nature of the assay: Propidium iodide staining, fluorescence microscopy. Format: cell-based, Candida albicans. The note with it: peptide 300 µM, 30 °C, 1 h, 0.03 mM PI 15 min. On the procedure: as §5, §6

In the case of `CC[C@H](C)[C@H](NC(=O)[C@@H](NC(=O)[C@H](Cc1c[nH]cn1)NC(=O)[C@@H](NC(=O)[C@H](C)NC(=O)[C@@H](NC(=O)[C@H](CS)NC(=O)[C@H](CS)NC(=O)CNC(=O)[C@@H](N)CO)[C@@H](C)O)C(C)C)[C@@H](C)O)C(=O)NCC(=O)N[C@@H](CCCCN)C(=O)N[C@@H](CCC(N)=O)C(=O)N[C@@H](CO)C(=O)N1CCC[C@H]1C(=O)N[C@@H](CCCCN)C(=O)N[C@@H](CS)C(=O)O` [TkLTPd5.6_59-75] (H-SGCCTAVHTIGKQSPKC-OH; N-terminus and C-terminus assumed), in assay [1], the “Pathogen inhibition, % (F. culmorum)” value is “inactive”. Besides, in assay [2], the “Pathogen inhibition, % (F. oxysporum)” value is “inactive”. The “Pathogen inhibition, % (F. solani)” value in assay [3] was “inactive”. Besides, in assay [4], the “Pathogen inhibition, % (F. verticillioides)” value was “inactive”.

Turning to `C[C@H](N)C(=O)N[C@@H](CS)C(=O)N1CCC[C@H]1C(=O)NCC(=O)N[C@@H](C)C(=O)N[C@@H](CS)C(=O)N1CCC[C@H]1C(=O)N[C@@H](C)C(=O)N1CCC[C@H]1C(=O)NCC(=O)NCC(=O)N[C@@H](CO)C(=O)N[C@@H](Cc1ccc(O)cc1)C(=O)N[C@H](C(=O)N[C@@H](CC(N)=O)C(=O)N[C@@H](CCCNC(=N)N)C(=O)NCC(=O)N[C@@H](CS)C(=O)N[C@@H](CCC(N)=O)C(=O)N[C@@H](CCCCN)C(=O)N[C@@H](CCCCN)C(=O)N[C@@H](Cc1ccc(O)cc1)C(=O)N[C@@H](CCC(N)=O)C(=O)N[C@@H](CS)C(=O)N[C@@H](CCCNC(=N)N)C(=O)O)[C@@H](C)O` [DEFL4-20_86-110] (H-ACPGACPAPGGSYTNRGCQKKYQCR-OH; N-terminus and C-terminus assumed), the “Inhibition of Cr. neoformans at the highest tested concentration” value in assay [5] turned out to be 95%. Further, the “Inhibition of Cl. michiganensis at the highest tested concentration” value in assay [6] is listed as 91%. The “Membrane permeabilization of Cr. neoformans cells (PI staining)” value in assay [7] is reported as “induced membrane permeabilization”. For the same compound, the “Membrane permeabilization of C. albicans cells (PI staining)” value in assay [8] is recorded as “induced membrane permeabilization”.
